Reference: the kinase profiling compilation of Christmann-Franck et al. (2016)

Assays:
Assay in all cases: radiometric filter-binding kinase assay, Kinase HotSpot
Settings in all cases: compound 0.5 µM; ATP 10 µM
AKT3 (human) = AKT3 (human) (UniProt Q9Y243)
CAMK1D (human) = CAMK1D (human) (UniProt Q8IU85)
CAMK2D (human) = CAMK2D (human) (UniProt Q13557)
CAMKK2 (human) = CAMKK2 (human) (UniProt Q96RR4)
CDC42BPA (human) = CDC42BPA (human) (UniProt Q5VT25)
CDK3 CCNE1 (human) = CDK3 CCNE1 (human) (UniProt Q00526+P24864)
CDK7 CCNH MNAT1 (human) = CDK7 CCNH MNAT1 (human) (UniProt P50613+P51948+P51946)
CHUK (human) = CHUK (human) (UniProt O15111)
CSNK1A1 (human) = CSNK1A1 (human) (UniProt P48729)
CSNK1G2 (human) = CSNK1G2 (human) (UniProt P78368)
DYRK2 (human) = DYRK2 (human) (UniProt Q92630)
EGFR (human) = EGFR (human) (UniProt P00533)
EPHB2 (human) = EPHB2 (human) (UniProt P29323)
ERBB4 (human) = ERBB4 (human) (UniProt Q15303)
GRK5 (human) = GRK5 (human) (UniProt P34947)
GRK6 (human) = GRK6 (human) (UniProt P43250)
GRK7 (human) = GRK7 (human) (UniProt Q8WTQ7)
HIPK1 (human) = HIPK1 (human) (UniProt Q86Z02)
HIPK2 (human) = HIPK2 (human) (UniProt Q9H2X6)
INSRR (human) = INSRR (human) (UniProt P14616)
[1] = molecular target: JAK1 JH1 catalytic (human) (UniProt P23458)
MAPK10 (human) = MAPK10 (human) (UniProt P53779)
MARK1 (human) = MARK1 (human) (UniProt Q9P0L2)
MATK (human) = MATK (human) (UniProt P42679)
MKNK2 (human) = MKNK2 (human) (UniProt Q9HBH9)
NEK1 (human) = NEK1 (human) (UniProt Q96PY6)
NUAK1 (human) = NUAK1 (human) (UniProt O60285)
PAK6 (human) = PAK6 (human) (UniProt Q9NQU5)
PHKG1 (human) = PHKG1 (human) (UniProt Q16816)
PLK2 (human) = PLK2 (human) (UniProt Q9NYY3)
PTK6 (human) = PTK6 (human) (UniProt Q13882)
RPS6KA1 KD1 KD2 (human) = RPS6KA1 KD1 KD2 (human) (UniProt Q15418)
STK24 (human) = STK24 (human) (UniProt Q9Y6E0)
TAOK2 (human) = TAOK2 (human) (UniProt Q9UL54)
TAOK3 (human) = TAOK3 (human) (UniProt Q9H2K8)
TEC (human) = TEC (human) (UniProt P42680)
TTK (human) = TTK (human) (UniProt P33981)

RPS6KA1 KD1 KD2 (human), sequence (Q15418 whole entry, looked up): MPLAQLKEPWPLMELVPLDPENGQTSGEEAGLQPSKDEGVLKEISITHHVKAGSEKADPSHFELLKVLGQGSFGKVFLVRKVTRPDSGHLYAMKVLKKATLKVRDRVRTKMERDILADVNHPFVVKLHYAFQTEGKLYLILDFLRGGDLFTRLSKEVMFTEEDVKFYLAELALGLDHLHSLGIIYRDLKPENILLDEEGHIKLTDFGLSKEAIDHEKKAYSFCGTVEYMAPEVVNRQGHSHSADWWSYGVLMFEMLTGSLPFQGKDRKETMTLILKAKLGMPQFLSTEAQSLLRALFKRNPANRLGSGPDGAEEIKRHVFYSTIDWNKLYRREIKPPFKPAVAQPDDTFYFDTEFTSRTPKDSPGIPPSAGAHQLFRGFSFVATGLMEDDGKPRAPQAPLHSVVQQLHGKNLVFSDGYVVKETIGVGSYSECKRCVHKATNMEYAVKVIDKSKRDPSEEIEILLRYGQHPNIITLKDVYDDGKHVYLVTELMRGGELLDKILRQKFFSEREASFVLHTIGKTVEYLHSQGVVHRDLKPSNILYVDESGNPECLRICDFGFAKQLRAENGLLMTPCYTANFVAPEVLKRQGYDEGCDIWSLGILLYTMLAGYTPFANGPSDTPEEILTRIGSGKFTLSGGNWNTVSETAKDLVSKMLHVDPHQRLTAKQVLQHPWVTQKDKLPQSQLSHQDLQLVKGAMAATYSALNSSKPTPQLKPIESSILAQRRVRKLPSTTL
PTK6 (human), sequence (Q13882 whole entry, looked up): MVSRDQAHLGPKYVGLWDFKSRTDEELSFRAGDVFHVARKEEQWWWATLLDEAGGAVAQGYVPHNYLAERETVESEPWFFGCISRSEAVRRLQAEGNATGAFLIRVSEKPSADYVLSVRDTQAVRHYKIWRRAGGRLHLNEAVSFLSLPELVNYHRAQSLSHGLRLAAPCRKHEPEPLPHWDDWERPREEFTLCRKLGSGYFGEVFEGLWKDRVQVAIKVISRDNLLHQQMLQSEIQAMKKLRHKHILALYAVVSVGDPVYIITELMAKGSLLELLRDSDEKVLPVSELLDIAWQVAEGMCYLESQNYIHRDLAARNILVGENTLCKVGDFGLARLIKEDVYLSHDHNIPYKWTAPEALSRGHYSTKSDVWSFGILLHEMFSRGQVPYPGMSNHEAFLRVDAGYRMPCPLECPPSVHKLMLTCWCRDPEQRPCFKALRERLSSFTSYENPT
AKT3 (human), sequence (Q9Y243 whole entry, looked up): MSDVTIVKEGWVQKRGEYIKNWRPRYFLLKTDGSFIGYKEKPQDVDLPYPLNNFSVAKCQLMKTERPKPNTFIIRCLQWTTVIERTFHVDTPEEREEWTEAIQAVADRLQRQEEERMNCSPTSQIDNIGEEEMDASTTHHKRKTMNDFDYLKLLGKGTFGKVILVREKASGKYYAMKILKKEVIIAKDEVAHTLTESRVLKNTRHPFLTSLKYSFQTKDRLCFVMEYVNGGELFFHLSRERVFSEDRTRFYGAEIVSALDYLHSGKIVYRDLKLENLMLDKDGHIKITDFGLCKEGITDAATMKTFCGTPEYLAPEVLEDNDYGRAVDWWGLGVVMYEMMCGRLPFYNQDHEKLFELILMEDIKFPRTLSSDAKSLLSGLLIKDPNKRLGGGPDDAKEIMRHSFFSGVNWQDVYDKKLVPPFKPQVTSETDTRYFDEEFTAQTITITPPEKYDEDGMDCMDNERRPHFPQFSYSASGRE
CDK7 CCNH MNAT1 (human), sequence (P50613 whole entry, looked up): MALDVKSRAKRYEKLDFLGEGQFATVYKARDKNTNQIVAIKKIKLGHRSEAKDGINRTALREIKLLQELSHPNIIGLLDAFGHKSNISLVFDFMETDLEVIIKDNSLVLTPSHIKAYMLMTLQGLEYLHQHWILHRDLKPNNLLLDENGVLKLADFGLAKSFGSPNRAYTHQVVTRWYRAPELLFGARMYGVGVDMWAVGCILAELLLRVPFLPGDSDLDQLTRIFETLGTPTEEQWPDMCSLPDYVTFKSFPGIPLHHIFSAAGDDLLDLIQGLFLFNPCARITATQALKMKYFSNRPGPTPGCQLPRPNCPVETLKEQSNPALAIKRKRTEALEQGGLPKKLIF
CDK7 CCNH MNAT1 (human), sequence (P51946 whole entry, looked up): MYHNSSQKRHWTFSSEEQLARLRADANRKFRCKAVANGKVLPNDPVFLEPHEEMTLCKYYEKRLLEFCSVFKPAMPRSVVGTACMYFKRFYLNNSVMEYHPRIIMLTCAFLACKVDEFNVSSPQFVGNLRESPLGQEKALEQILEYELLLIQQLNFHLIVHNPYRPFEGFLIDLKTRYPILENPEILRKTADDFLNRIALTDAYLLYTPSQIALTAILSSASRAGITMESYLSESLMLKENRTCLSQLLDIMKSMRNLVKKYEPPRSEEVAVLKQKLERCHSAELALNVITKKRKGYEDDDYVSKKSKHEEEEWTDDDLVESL
CDK7 CCNH MNAT1 (human), sequence (P51948 whole entry, looked up): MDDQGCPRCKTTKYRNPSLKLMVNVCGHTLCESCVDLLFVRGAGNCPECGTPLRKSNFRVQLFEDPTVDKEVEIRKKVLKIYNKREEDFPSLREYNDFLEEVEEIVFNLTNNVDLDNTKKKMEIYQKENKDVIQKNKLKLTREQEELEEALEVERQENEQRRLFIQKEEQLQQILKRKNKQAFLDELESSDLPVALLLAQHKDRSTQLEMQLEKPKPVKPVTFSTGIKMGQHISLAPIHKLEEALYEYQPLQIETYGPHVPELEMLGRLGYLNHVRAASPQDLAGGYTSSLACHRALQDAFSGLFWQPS
GRK6 (human), sequence (P43250 whole entry, looked up): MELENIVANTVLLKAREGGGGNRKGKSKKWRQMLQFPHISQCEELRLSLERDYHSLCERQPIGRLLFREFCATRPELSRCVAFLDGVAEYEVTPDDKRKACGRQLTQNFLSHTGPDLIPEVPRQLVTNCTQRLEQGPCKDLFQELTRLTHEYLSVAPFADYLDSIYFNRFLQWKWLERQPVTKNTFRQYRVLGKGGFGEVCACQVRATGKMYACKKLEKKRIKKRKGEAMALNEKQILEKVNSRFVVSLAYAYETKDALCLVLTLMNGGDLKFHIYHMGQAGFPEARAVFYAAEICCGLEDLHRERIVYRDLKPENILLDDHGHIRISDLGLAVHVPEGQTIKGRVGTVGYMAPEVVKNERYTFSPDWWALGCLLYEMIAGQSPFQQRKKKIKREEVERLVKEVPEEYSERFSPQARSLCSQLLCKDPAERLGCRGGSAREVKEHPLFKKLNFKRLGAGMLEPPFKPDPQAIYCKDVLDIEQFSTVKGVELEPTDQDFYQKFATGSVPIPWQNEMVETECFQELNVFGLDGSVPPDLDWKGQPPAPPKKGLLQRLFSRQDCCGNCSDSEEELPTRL
EGFR (human), sequence (P00533 whole entry, looked up): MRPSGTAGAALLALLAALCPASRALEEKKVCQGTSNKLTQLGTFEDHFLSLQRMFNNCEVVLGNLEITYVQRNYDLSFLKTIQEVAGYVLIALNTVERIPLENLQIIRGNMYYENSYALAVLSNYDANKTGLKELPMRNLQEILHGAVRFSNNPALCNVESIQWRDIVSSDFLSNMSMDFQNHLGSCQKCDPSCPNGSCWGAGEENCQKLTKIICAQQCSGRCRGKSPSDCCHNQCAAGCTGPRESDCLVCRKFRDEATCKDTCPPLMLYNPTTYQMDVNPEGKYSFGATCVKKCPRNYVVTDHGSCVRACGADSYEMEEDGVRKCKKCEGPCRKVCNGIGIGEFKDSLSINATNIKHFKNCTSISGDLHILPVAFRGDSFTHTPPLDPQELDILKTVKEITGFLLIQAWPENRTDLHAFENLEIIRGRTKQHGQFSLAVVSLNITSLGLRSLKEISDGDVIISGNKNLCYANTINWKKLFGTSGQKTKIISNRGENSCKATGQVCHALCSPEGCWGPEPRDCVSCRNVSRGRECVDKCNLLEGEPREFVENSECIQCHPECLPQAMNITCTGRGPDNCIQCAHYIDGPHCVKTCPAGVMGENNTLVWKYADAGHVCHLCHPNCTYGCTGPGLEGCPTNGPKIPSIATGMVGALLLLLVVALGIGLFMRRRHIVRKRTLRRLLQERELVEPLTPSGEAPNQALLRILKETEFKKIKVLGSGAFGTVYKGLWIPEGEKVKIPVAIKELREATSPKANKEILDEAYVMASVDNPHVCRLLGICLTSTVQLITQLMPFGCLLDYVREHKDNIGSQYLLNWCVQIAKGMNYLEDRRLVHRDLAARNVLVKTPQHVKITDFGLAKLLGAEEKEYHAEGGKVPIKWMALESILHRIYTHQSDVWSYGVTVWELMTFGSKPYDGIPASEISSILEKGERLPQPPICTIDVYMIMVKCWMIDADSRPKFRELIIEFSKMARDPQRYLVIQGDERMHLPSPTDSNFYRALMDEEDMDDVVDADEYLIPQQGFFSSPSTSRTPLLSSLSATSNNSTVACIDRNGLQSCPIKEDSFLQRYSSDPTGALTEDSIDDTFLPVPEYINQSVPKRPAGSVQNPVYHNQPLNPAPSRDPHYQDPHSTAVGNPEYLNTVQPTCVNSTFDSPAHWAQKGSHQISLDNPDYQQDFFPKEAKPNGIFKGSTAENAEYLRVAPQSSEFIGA
MAPK10 (human), sequence (P53779 whole entry, looked up): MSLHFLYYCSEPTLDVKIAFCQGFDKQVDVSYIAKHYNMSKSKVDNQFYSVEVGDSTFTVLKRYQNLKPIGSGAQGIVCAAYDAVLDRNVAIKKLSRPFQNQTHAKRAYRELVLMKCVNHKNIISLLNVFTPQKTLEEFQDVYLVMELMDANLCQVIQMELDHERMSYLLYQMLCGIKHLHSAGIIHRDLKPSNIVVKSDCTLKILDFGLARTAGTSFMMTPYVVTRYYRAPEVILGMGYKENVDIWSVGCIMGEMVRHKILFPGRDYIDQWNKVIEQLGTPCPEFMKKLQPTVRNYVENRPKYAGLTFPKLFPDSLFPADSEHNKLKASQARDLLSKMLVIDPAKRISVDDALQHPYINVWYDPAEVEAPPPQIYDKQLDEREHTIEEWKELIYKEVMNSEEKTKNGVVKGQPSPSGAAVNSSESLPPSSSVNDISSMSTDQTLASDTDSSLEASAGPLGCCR

Structure (SMILES) | residual activity (AKT3 (human)) [%] | residual activity (CAMK1D (human)) [%] | residual activity (CAMK2D (human)) [%] | residual activity (CAMKK2 (human)) [%] | residual activity (CDC42BPA (human)) [%] | residual activity (CDK3 CCNE1 (human)) [%] | residual activity (CDK7 CCNH MNAT1 (human)) [%] | residual activity (CHUK (human)) [%] | residual activity (CSNK1A1 (human)) [%] | residual activity (CSNK1G2 (human)) [%] | residual activity (DYRK2 (human)) [%] | residual activity (EGFR (human)) [%] | residual activity (EPHB2 (human)) [%] | residual activity (ERBB4 (human)) [%] | residual activity (GRK5 (human)) [%] | residual activity (GRK6 (human)) [%] | residual activity (GRK7 (human)) [%] | residual activity (HIPK1 (human)) [%] | residual activity (HIPK2 (human)) [%] | residual activity (INSRR (human)) [%] | other results
O=C(c1cc2cc(O)ccc2[nH]1)c1cc2cc(O)ccc2[nH]1 | 102 | 91.5 | 63.7 | 84.2 | 90.2 | 85.2 | 93.5 | 103 | 96.3 | 93.8 | 89 | 97.6 | 76.7 | 102 | 104 | 102 | 99.8 | 94.3 | 102 | 97.1 | residual activity [1]: 98.7%; residual activity (MAPK10 (human)): 91.6%; residual activity (MARK1 (human)): 66.3%; residual activity (MATK (human)): 93.3%; residual activity (MKNK2 (human)): 46.8%; residual activity (NEK1 (human)): 93.4%; residual activity (NUAK1 (human)): 69.2%; residual activity (PAK6 (human)): 74.4%; residual activity (PHKG1 (human)): 72.1%; residual activity (PLK2 (human)): 102%; residual activity (PTK6 (human)): 91.9%; residual activity (RPS6KA1 KD1 KD2 (human)): 30.1%; residual activity (STK24 (human)): 70.4%; residual activity (TAOK2 (human)): 99%; residual activity (TAOK3 (human)): 66.6%; residual activity (TEC (human)): 105%; residual activity (TTK (human)): 92.9%
COc1ccc2c(c1)c(C1=C(c3c[nH]c4ccccc34)C(=O)NC1=O)cn2CCCN(C)C | 63.7 | 73.3 | 74.8 | 82 | 89.2 | 78.8 | 88 | 96.5 | 62.3 | 82.2 | 92.4 | 92.6 | 78.7 | 93.4 | 114 | 96.2 | 106 | 77.7 | 96.3 | 101 | residual activity [1]: 100%; residual activity (MAPK10 (human)): 88.8%; residual activity (MARK1 (human)): 93.2%; residual activity (MATK (human)): 99.3%; residual activity (MKNK2 (human)): 81.1%; residual activity (NEK1 (human)): 94.7%; residual activity (NUAK1 (human)): 32.2%; residual activity (PAK6 (human)): 70.4%; residual activity (PHKG1 (human)): 66.4%; residual activity (PLK2 (human)): 103%; residual activity (PTK6 (human)): 92%; residual activity (RPS6KA1 KD1 KD2 (human)): 16%; residual activity (STK24 (human)): 36.6%; residual activity (TAOK2 (human)): 80.8%; residual activity (TAOK3 (human)): 78.2%; residual activity (TEC (human)): 97.9%; residual activity (TTK (human)): 89.9%
CN(C)CCCn1cc(C2=C(c3c[nH]c4ccccc34)C(=O)NC2=O)c2ccccc21 | 31.5 | 68 | 38.7 | 59.8 | 97.1 | 93.2 | 92.1 | 105 | 96.5 | 90.3 | 111 | 94 | 100 | 87.7 | 71.6 | 72 | 60.4 | 96.6 | 77.5 | 91.3 | residual activity [1]: 88.7%; residual activity (MAPK10 (human)): 99.3%; residual activity (MARK1 (human)): 84.1%; residual activity (MATK (human)): 100%; residual activity (MKNK2 (human)): 85.3%; residual activity (NEK1 (human)): 92.5%; residual activity (NUAK1 (human)): 25.9%; residual activity (PAK6 (human)): 101%; residual activity (PHKG1 (human)): 31.9%; residual activity (PLK2 (human)): 97.3%; residual activity (PTK6 (human)): 95.3%; residual activity (RPS6KA1 KD1 KD2 (human)): 4.67%; residual activity (STK24 (human)): 52.9%; residual activity (TAOK2 (human)): 75.7%; residual activity (TAOK3 (human)): 67.6%; residual activity (TEC (human)): 116%; residual activity (TTK (human)): 98.2%
